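Briefly, cells in 96-well plates were exposed to five compound concentrations for 48 h, and endpoints were estimated by linear interpolation. The concentration for full growth arrest is given as TGI.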
Key:
Assay in all cases: NCI tumour cell line growth inhibition, 48 h
LOX IMVI melanoma = system: LOX IMVI melanoma
MOLT-4 leukemia = system: MOLT-4 leukemia
EKVX NSCLC = system: EKVX NSCLC
ACHN renal = system: ACHN renal
SN12C renal = system: SN12C renal
SF-295 CNS = system: SF-295 CNS
MALME-3M melanoma = system: MALME-3M melanoma
NCI/ADR-RES ovarian = system: NCI/ADR-RES ovarian
UACC-257 melanoma = system: UACC-257 melanoma
SF-268 CNS = system: SF-268 CNS
OVCAR-8 ovarian = system: OVCAR-8 ovarian
SK-MEL-5 melanoma = system: SK-MEL-5 melanoma
SW-620 colon = system: SW-620 colon
786-0 renal = system: 786-0 renal
UACC-62 melanoma = system: UACC-62 melanoma
HS 578T breast = system: HS 578T breast
OVCAR-3 ovarian = system: OVCAR-3 ovarian
OVCAR-5 ovarian = system: OVCAR-5 ovarian
HOP-92 NSCLC = system: HOP-92 NSCLC
A549 NSCLC = system: A549 NSCLC
MCF7 breast = system: MCF7 breast
PC-3 prostate = system: PC-3 prostate
RPMI-8226 leukemia = system: RPMI-8226 leukemia
HOP-62 NSCLC = system: HOP-62 NSCLC
HCT-116 colon = system: HCT-116 colon
SNB-19 CNS = system: SNB-19 CNS
SR leukemia = system: SR leukemia
OVCAR-4 ovarian = system: OVCAR-4 ovarian
IGROV1 ovarian = system: IGROV1 ovarian
SNB-75 CNS = system: SNB-75 CNS
M14 melanoma = system: M14 melanoma
BT-549 breast = system: BT-549 breast
HCC-2998 colon = system: HCC-2998 colon
K-562 leukemia = system: K-562 leukemia
DU-145 prostate = system: DU-145 prostate
MDA-N = system: MDA-N
MDA-MB-231 breast = system: MDA-MB-231 breast
CAKI-1 renal = system: CAKI-1 renal
NCI-H23 lung = system: NCI-H23 lung
KM12 colon = system: KM12 colon
RXF 393 renal = system: RXF 393 renal
A498 renal = system: A498 renal
UO-31 renal = system: UO-31 renal
NCI-H226 lung = system: NCI-H226 lung
SK-OV-3 ovarian = system: SK-OV-3 ovarian
U251 CNS = system: U251 CNS
SK-MEL-28 melanoma = system: SK-MEL-28 melanoma
HCT-15 colon = system: HCT-15 colon
NCI-H460 lung = system: NCI-H460 lung
HT29 colon = system: HT29 colon
SK-MEL-2 melanoma = system: SK-MEL-2 melanoma
CCRF-CEM leukemia = system: CCRF-CEM leukemia
T-47D breast = system: T-47D breast
TK-10 renal = system: TK-10 renal

Measured: TGI

CCN(CC)C(=O)COc1cc2c(O)c3c(O)c(C)c4c(c13)C(=O)C(C)(OC=CC(OC)C(C)C(OC(C)=O)C(C)C(O)C(C)C(O)C(C)C=CC=C(C)C(=O)N2)O4 (centres undefined)
> 100 µM: all assays above

— PubChem BioAssay (NCI)
